Earlier results, collected in patent publication US20020137692A1, “Novel compositions of potassium channel openers and protein kinase C inhibitors and use thereof” (Pharmacia AB, priority 2001, published 2002).

Molecule	stimulation of hair keratinocytes (hair keratinocytes)	anagen induction in vivo (hair growth)	hair growth stimulation (C3H mouse)
Oc1cc(O)c2c(c1)O[C@H](c1ccc(O)c(O)c1)[C@H](O)[C@H]2c1c(O)cc(O)c2c1O[C@H](c1ccc(O)c(O)c1)[C@H](O)C2 [procyanidin B2]	stimulation of hair keratinocytes	marked anagen induction	hair growth stimulation
CCCCCCCCCCCCCCCC(=O)OC(CC(=O)O)C[N+](C)(C)C.[Cl-] (racemic) [palmitoyl-DL-carnitine chloride]		marked anagen induction	
calphostin C		marked anagen induction	
polymyxin B sulfate		marked anagen induction	
Oc1cc(O)c2c(c1)O[C@H](c1ccc(O)c(O)c1)[C@@H](O)[C@@H]2c1c(O)cc(O)c2c1O[C@H](c1ccc(O)c(O)c1)[C@@H](O)C2 [Solution B3, procyanidin B3]	stimulation of hair keratinocytes		hair growth stimulation
CCCCCCCCCCCCCCCCOP(=O)([O-])OCC[N+](C)(C)C [hexadecylphosphocholine]		marked anagen induction	
Oc1cc(O)c2c(c1)O[C@H](c1ccc(O)c(O)c1)[C@H](O)[C@H]2c1c(O)cc(O)c2c1O[C@H](c1ccc(O)c(O)c1)[C@H](O)[C@H]2c1c(O)cc(O)c2c1O[C@H](c1ccc(O)c(O)c1)[C@H](O)C2 [procyanidin C1]	stimulation of hair keratinocytes	marked anagen induction	hair growth stimulation
Oc1cc(O)c2c(c1)O[C@H](c1ccc(O)c(O)c1)[C@H](O)[C@H]2c1c(O)cc(O)c2c1O[C@H](c1ccc(O)c(O)c1)[C@@H](O)C2 [procyanidin B1]	stimulation of hair keratinocytes		hair growth stimulation
